One may read the EC50 as the midpoint of the concentration-response curve. A higher EC50 goes with a need for much substance.

The record followed here is patent publication US10336746B1, “RAD51 inhibitors” (Cyteir Therapeutics, Inc., priority 2017, dated 2019).

Structures are written as SMILES.

For assay [1], the system named is Daudi cell line (AID positive). As to the kind of experiment: Primary screening cell killing assay, Daudi cell line (AID positive). It counts as cell-based. The settings on record: Homo sapiens, 168 h, cell death on Day 7, Cell-Titer Glo. Here is the method:
(§1) Primary screening was a phenotypic screen that utilized the synthetic lethal interaction between AID and RAD51 to identify compounds that were both potent and on target. AID expressing cells are dependent upon RAD51 for survival; inhibiting RAD51 in AID positive cells results in a cytotoxic effect.
The first step was to set up a cell killing assay in the Daudi cell line (AID positive). A 96 well u-bottom plate was prepared by writing the experiment number, plate number, date and initials in the top right corner of the plate lid. With a sterile 300 ml reservoir, and 25 ml serological pipette, evaporation buffer media was pipetted into reservoir in 25 ml increments. Using the liquid handler, 150 ul of evaporation buffer media was pipetted from reservoir into rows A and H, and Columns 1 and 12 of the 96 well u-bottom plate. Cell cultures were counted to obtain the density of cells per ml, and the culture viability. The cell density information was used to obtain 1,000,000 cells from culture using a 5 mL serological pipette into an epi tube. The cell density information from the culture was used to calculate the number of cells and volume of media needed for the assay to seed 1250 cells in 130 ul of media per available culture well in the 96 well u-bottom plate. Rows B through F were used for cells (50 wells in total), with row G left for an empty media control. The calculation was overestimated by 10 mL to account for the dead volume in the 300 ml reservoir. Once the media volume was calculated, the appropriate volume of media was pipetted in 25 mL increments into the 250 mL bottle using a 25 mL serological pipette. The 250 ml bottle was capped tightly, and placed into a 37° C. water bath for 2 minutes. While the culture media was warming, 10 mL of fresh media was pipetted from the 500 mL culture media bottle into a sterile 25 mL reservoir. Using the Eppendorf multichannel pipette, 130 ul of media was pipetted from the 25 mL reservoir into row G of the 96 well u-bottom plate. Once the 250 mL bottle of media was warmed, the volume of culture needed was pipetted into the bottle, and mixed gently with a 25 mL serological pipette as to not create bubbles, and then the contents of the bottle were pipetted into a new 300 mL reservoir. Using the liquid handler, 130 ul of culture was pipetted from the 300 mL reservoir into rows B through F of the 96 well u-bottom plate. Once the culture was added, the plate was placed into a 37° C. incubator until the compound master plate was prepared for use.
Two 96 well u-bottom plates were prepared by writing the master plate name in the upper right corner of the plate lid. Labeling one DMSO master and the other Media Master. The compounds of interest were obtained from the laboratory freezer, and placed into a 25 well storage box with a lid, and set the box aside. The compounds were vortexed after thawing but before use. Using an automatic multichannel pipette, 20 ul of 100% DMSO was pipetted into wells B3-B11 through G3-G11 of the DMSO master plate. For each compound on the master plate, 50 ul of the compound were pipetted in the appropriate well of row 2 (reference plate map to determine appropriate well). A serial dilution was prepared beginning by aspirating 20 ul from row 2 and mixing with row 3, repeating until row 11 was reached. Using the liquid handler, 194 ul of Daudi media was dispensed into wells B2-B11 through G2-G11 of the Media master plate. Using the liquid handler, 6 ul from the DMSO master plate was aspirated and dispensed into the media master plate, mixing 100 ul twice.
Compounds from master plate were then added to the culture plate. The culture plates were removed from the incubator, and set inside the biosafety cabinet. Using a liquid handler, 20 ul from wells B2 to B11 through G2 to G11 of master plate were aspirated, and dispensed into wells B2 to B11 through G2 to G11 of culture plate. This set was continued with each culture plate. […]

Assay [2] deals with WI-38 cells (AID negative). Description: Primary screening cell killing assay repeated in WI-38 cells (AID negative). Conditions: Homo sapiens, 168 h, cell death on Day 7, Cell-Titer Glo. It counts as cell-based. Here is the method: as §1
Percent cell death and EC50 values were calculated by comparing the cell viability of the compound treated wells to the non-treated wells. Normalized RLU values were obtained by subtracting the media well values from each of the wells in the same column, and then dividing that value by the DMSO treated cells values. The percent kill was then calculated by subtracting the normalized RLU value from 1 and multiplying by 100. The average normalized percent kill value and standard error of the mean was then calculated. The kill values were then inputted into Prism with the corresponding standard errors. In Prism a non-linear regression line was plotted with the data points using a semi-log scale, and the EC50 value was calculated.

Turning to `CC(C)OC(=O)NC12CCC(c3ncc(-c4ccc(NC(=O)N[C@@H](C)c5ccccn5)cc4S(=O)(=O)NC(C)(C)C)s3)(CC1)CC2` [Ex. 15, isopropyl (S)-(4-(5-(2-(N-(tert-butyl)sulfamoyl)-4-(3-(1-(pyridin-2-yl)ethyl)ureido)phenyl)thiazol-2-yl)bicyclo[2.2.2]octan-1-yl)carbamate], the EC50 in assay [1] was at most 0.1 µM; in assay [2], over 1 µM.

As for `CC(C)OC(=O)NC12CCC(c3ncc(-c4ccc(NC(=O)N[C@H](C)c5ccccn5)cc4S(=O)(=O)NC(C)(C)C)s3)(CC1)CC2` [Ex. 16, isopropyl (R)-(4-(5-(2-(N-(tert-butyl)sulfamoyl)-4-(3-(1-(pyridin-2-yl)ethyl)ureido)phenyl)thiazol-2-yl)bicyclo[2.2.2]octan-1-yl)carbamate], the EC50 is at most 0.1 µM in assay [1] and over 1 µM in assay [2].

Consider `CC(C)OC(=O)NC12CCC(c3ncc(-c4ccc(NC(=O)NCc5ccccc5)cc4S(=O)(=O)NC(C)(C)C)s3)(CC1)CC2` [Ex. 18, isopropyl (4-(5-(4-(3-benzylureido)-2-(N-(tert-butyl)sulfamoyl)phenyl)thiazol-2-yl)bicyclo[2.2.2]octan-1-yl)carbamate], for which the EC50 in assay [1] was at most 0.1 µM; in assay [2], over 1 µM.

For `CC(C)OC(=O)NC12CCC(c3ncc(-c4ccc(NC(=O)NCc5ccccn5)cc4S(=O)(=O)NC(C)(C)C)s3)(CC1)CC2` [Ex. 19, isopropyl (4-(5-(2-(N-(tert-butyl)sulfamoyl)-4-(3-(pyridin-2-ylmethyl)ureido)phenyl)thiazol-2-yl)bicyclo[2.2.2]octan-1-yl)carbamate], the EC50 in assay [1] was at most 0.1 µM; in assay [2] it was over 1 µM.

For `CC(C)OC(=O)N[C@H]1CC[C@H](c2ncc(-c3ccc(NC(=O)N[C@H](C)c4ccccc4)cc3S(=O)(=O)NC(C)(C)C)s2)CC1` [Ex. 24], the EC50 in assay [1] was at most 0.1 µM; in assay [2], over 1 µM.

For the compound `CC(C)OC(=O)N[C@H]1CC[C@H](c2ncc(-c3ccc(NC(=O)N[C@@H](C)c4ccccc4)cc3S(=O)(=O)NC(C)(C)C)s2)CC1` [Ex. 26, isopropyl ((1S,4r)-4-(5-(2-(N-(tert-butyl)sulfamoyl)-4-(3-((S)-1-phenylethyl)ureido)phenyl)thiazol-2-yl)cyclohexyl)carbamate], the figures for the EC50 in assay [1] and in assay [2] were at most 0.1 µM and over 1 µM, respectively.

For `CC(C)OC(=O)N[C@H]1CC[C@H](c2ncc(-c3ccc(NC(=O)N[C@@H](C)c4ccccn4)cc3S(=O)(=O)NC(C)(C)C)s2)CC1` [Ex. 32, isopropyl ((1S,4r)-4-(5-(2-(N-(tert-butyl)sulfamoyl)-4-(3-((S)-1-(pyridin-2-yl)ethyl)ureido)phenyl)thiazol-2-yl)cyclohexyl)carbamate], the figures for the EC50 in assay [1] and in assay [2] were at most 0.1 µM and over 1 µM, respectively.

On to `CC(C)OC(=O)NC1CCC(c2ncc(-c3ccc(NC(=O)OCc4ccccc4)cc3S(=O)(=O)NC(C)(C)C)s2)CC1` (stereo not drawn) [Ex. 39, benzyl (3-(N-(tert-butyl)sulfamoyl)-4-(2-((1r,4r)-4-((isopropoxycarbonyl)amino)cyclohexyl)thiazol-5-yl)phenyl)carbamate], for which the EC50 is at most 0.1 µM in assay [1] and over 1 µM in assay [2].

As for `CC(C)OC(=O)NC1CCC(c2ncc(-c3ccc(NC(=O)OCc4ccccc4F)cc3S(=O)(=O)NC(C)(C)C)s2)CC1` (stereo not drawn) [Ex. 40, 2-fluorobenzyl (3-(N-(tert-butyl)sulfamoyl)-4-(2-((1r,4r)-4-((isopropoxycarbonyl)amino)cyclohexyl)thiazol-5-yl)phenyl)carbamate], the values for the EC50 in assay [1] and in assay [2] were at most 0.1 µM and over 1 µM, respectively.

Take `CC(C)OC(=O)NC1CCC(c2ncc(-c3ccc(NC(=O)O[C@@H](C)c4ccccc4)cc3S(=O)(=O)NC(C)(C)C)s2)CC1` (stereo partly drawn) [Ex. 41, (S)-1-phenylethyl (3-(N-(tert-butyl)sulfamoyl)-4-(2-((1r,4S)-4-((isopropoxycarbonyl)amino)cyclohexyl)thiazol-5-yl)phenyl)carbamate]: the EC50 was at most 0.1 µM in assay [1] and over 1 µM in assay [2].

As for `CC(C)OC(=O)NC1CCC(c2ncc(-c3ccc(NC(=O)OCc4ccccn4)cc3S(=O)(=O)NC(C)(C)C)s2)CC1` (stereo not drawn) [Ex. 42, pyridin-2-ylmethyl (3-(N-(tert-butyl)sulfamoyl)-4-(2-((1r,4r)-4-((isopropoxycarbonyl)amino)cyclohexyl)thiazol-5-yl)phenyl)carbamate], the EC50 was at most 0.1 µM in assay [1] and over 1 µM in assay [2].

In the case of `CC(C)OC(=O)NC1CCC(c2ncc(-c3ccc(NC(=O)O[C@H](C)c4ccccc4)cc3S(=O)(=O)NC(C)(C)C)s2)CC1` (stereo partly drawn) [Ex. 43, (R)-1-phenylethyl (3-(N-(tert-butyl)sulfamoyl)-4-(2-((1r,4R)-4-((isopropoxycarbonyl)amino)cyclohexyl)thiazol-5-yl)phenyl)carbamate], the results for the EC50 in assay [1] and in assay [2] were 0.1 to 1 µM and over 1 µM, respectively.

In the case of `CC(C)OC(=O)Nc1ccc(-c2cnc(N3CC(NC(=O)OC(C)C)C3)s2)c(S(=O)(=O)NC(C)(C)C)c1` [Ex. 46, isopropyl N-[3-(tert-butylsulfamoyl)-4-[2-[3-(isopropoxycarbonylamino)azetidin-1-yl]thiazol-5-yl]phenyl]carbamate], the EC50 in assay [1] and in assay [2] was over 1 µM in each case.

For the compound `CC(C)(C)NS(=O)(=O)c1cc(NC(=O)OC2COC2)ccc1-c1cnc([C@H]2CC[C@H](NC(=O)OC3COC3)CC2)s1` [Ex. 49, trans-oxetan-3-yl N-[3-(tert-butylsulfamoyl)-4-[2-[4-(oxetan-3-yloxycarbonylamino)cyclohexyl]thiazol-5-yl]phenyl]carbamate], the EC50 in assay [1] was 0.1 to 1 µM; in assay [2] it was over 1 µM.

For `C[C@@H](NC(=O)Nc1ccc(-c2cnc(C3CCC(NC(=O)OC4COC4)CC3)s2)c(S(=O)(=O)NC(C)(C)C)c1)c1ccccc1F` (stereo partly drawn) [Ex. 54, oxetan-3-yl ((1R,4r)-4-(5-(2-(N-(tert-butyl)sulfamoyl)-4-(3-((R)-1-(2-fluorophenyl)ethyl)ureido)phenyl)thiazol-2-yl)cyclohexyl)carbamate], the concentration for a half-maximal effect (EC50) in assay [1] is at most 0.1 µM; in assay [2] it was over 1 µM.

On to `CC(C)NC(=O)OC12CCC(c3ncc(-c4ccc(NC(=O)NCc5ccccc5)cc4S(=O)(=O)NC(C)(C)C)s3)(CC1)CC2` [Ex. 61, [1-[5-[4-(benzylcarbamoylamino)-2-(tert-butylsulfamoyl)phenyl]thiazol-2-yl]-4-bicyclo[2.2.2]octanyl]N-isopropylcarbamate], for which the EC50 in assay [1] and in assay [2] was over 1 µM in each case.

In the case of `CC(C)NC(=O)OC12CCC(c3ncc(-c4ccc(NC(=O)NCc5ccccn5)cc4S(=O)(=O)NC(C)(C)C)s3)(CC1)CC2` [Ex. 62, 4-(5-(2-(N-(tert-butyl)sulfamoyl)-4-(3-(pyridin-2-ylmethyl)ureido)phenyl)thiazol-2-yl)bicyclo[2.2.2]octan-1-yl isopropylcarbamate], the EC50 in assay [1] and in assay [2] was over 1 µM in each case.

For the compound `CC(C)OC(=O)Nc1ccc(-c2cnc(C3CC(NC(=O)OC(C)C)C3)s2)c(S(=O)(=O)NC(C)(C)C)c1` (stereo not drawn) [Ex. 65, isopropyl N-[3-(tert-butylsulfamoyl)-4-[2-[3-(isopropoxycarbonylamino)cyclobutyl]thiazol-5-yl]phenyl]carbamate], the figures for the EC50 in assay [1] and in assay [2] were 0.1 to 1 µM and over 1 µM, respectively.
